Assay results published in the supplement of paper PMC10307832.

What was measured:
Test in all cases: relative viability (nuclei count vs DMSO), 5 days (fraction); higher = more cells survive
[1] = tested on: NCI-H2085
In short: (§1)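 Values are medians from duplicate plates. Each reflects relative viability, defined as the nuclei count of treated wells over that of vehicle wells. Lung cancer cell lines in 1536-well plates were pin-tool dosed one day after seeding with one drug alone or with a fixed anchor-drug dose plus five library-drug doses (not always all listed) in √10 steps, then fixed, stained and imaged at 4× after 5 days.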

[2] = tested on: NCI-H647
In short: as §1

[3] = tested on: NCI-H358
In short: as §1

[4] = tested on: NCI-H2342
In short: as §1

[5] = tested on: LXF-289
In short: as §1

[6] = tested on: NCI-H1650
In short: as §1

[7] = tested on: NCI-H322M
In short: as §1

[8] = tested on: NCI-H727
In short: as §1

[9] = tested on: NCI-H2023
In short: as §1

[10] = tested on: SW 1573
In short: as §1

[11] = tested on: NCI-H1915
In short: as §1

[12] = tested on: NCI-H2347
In short: as §1

[13] = tested on: NCI-H661
In short: as §1

[14] = tested on: LCLC-97TM1
In short: as §1

[15] = tested on: NCI-H2009
In short: as §1

[16] = tested on: NCI-H1563
In short: as §1

[17] = tested on: NCI-H2126
In short: as §1

[18] = tested on: SK-LU-1
In short: as §1

[19] = tested on: EMC-BAC-2
In short: as §1

[20] = tested on: HOP-62
In short: as §1

[21] = tested on: BEN
In short: as §1

[22] = tested on: PC-14
In short: as §1

[23] = tested on: NCI-H1993
In short: as §1

[24] = tested on: H3255
In short: as §1

Which results are given for CC(C)Oc1cc(Nc2nc(N[C@@H](C)c3ccc(F)cn3)ncc2Cl)n[nH]1 [AZ23] + N=C(N)NC(=N)NCCc1ccccc1 [Phenformin] (partner 250 µM)?
relative viability ([1]; first compound 0.01 µM): 0.727; relative viability ([1]; first compound 0.03162 µM): 0.705; relative viability ([1]; first compound 0.3162 µM): 0.779; relative viability ([2]; first compound 0.01 µM): 0.558; relative viability ([2]; first compound 0.03162 µM): 0.797; relative viability ([2]; first compound 0.3162 µM): 0.604; relative viability ([3]; first compound 0.01 µM): 0.369; relative viability ([3]; first compound 0.03162 µM): 0.347; relative viability ([3]; first compound 0.3162 µM): 0.348; relative viability ([4]; first compound 0.01 µM): 0.683; relative viability ([4]; first compound 0.03162 µM): 0.634; relative viability ([4]; first compound 0.3162 µM): 0.564; relative viability ([5]; first compound 0.01 µM): 0.591; relative viability ([5]; first compound 0.03162 µM): 0.512; relative viability ([5]; first compound 0.3162 µM): 0.533; relative viability ([6]; first compound 0.03162 µM): 0.537; relative viability ([6]; first compound 0.3162 µM): 0.405; relative viability ([7]; first compound 0.03162 µM): 0.903; relative viability ([7]; first compound 0.3162 µM): 0.785; relative viability ([8]; first compound 0.01 µM): 0.571; relative viability ([8]; first compound 0.03162 µM): 0.552; relative viability ([8]; first compound 0.3162 µM): 0.485; relative viability ([9]; first compound 0.03162 µM): 0.506; relative viability ([9]; first compound 0.3162 µM): 0.481; relative viability ([10]; first compound 0.01 µM): 0.347; relative viability ([10]; first compound 0.03162 µM): 0.512; relative viability ([10]; first compound 0.3162 µM): 0.465; relative viability ([11]; first compound 0.01 µM): 0.4; relative viability ([11]; first compound 0.03162 µM): 0.373; relative viability ([11]; first compound 0.3162 µM): 0.372; relative viability ([12]; first compound 0.01 µM): 0.341; relative viability ([12]; first compound 0.03162 µM): 0.333; relative viability ([12]; first compound 0.3162 µM): 0.455; relative viability ([13]; first compound 0.01 µM): 0.293; relative viability ([13]; first compound 0.03162 µM): 0.257; relative viability ([13]; first compound 0.3162 µM): 0.241; relative viability ([14]; first compound 0.01 µM): 0.502; relative viability ([14]; first compound 0.03162 µM): 0.485; relative viability ([14]; first compound 0.3162 µM): 0.417; relative viability ([15]; first compound 0.01 µM): 0.508; relative viability ([15]; first compound 0.03162 µM): 0.539; relative viability ([15]; first compound 0.3162 µM): 0.63; relative viability ([16]; first compound 0.01 µM): 0.708; relative viability ([16]; first compound 0.03162 µM): 0.653; relative viability ([16]; first compound 0.3162 µM): 0.707; relative viability ([17]; first compound 0.01 µM): 0.51; relative viability ([17]; first compound 0.03162 µM): 0.539; relative viability ([17]; first compound 0.3162 µM): 0.532; relative viability ([18]; first compound 0.03162 µM): 0.586; relative viability ([18]; first compound 0.3162 µM): 0.517; relative viability ([19]; first compound 0.01 µM): 0.545; relative viability ([19]; first compound 0.03162 µM): 0.603; relative viability ([19]; first compound 0.3162 µM): 0.526; relative viability ([20]; first compound 0.01 µM): 0.684; relative viability ([20]; first compound 0.03162 µM): 0.792; relative viability ([20]; first compound 0.3162 µM): 0.79; relative viability ([21]; first compound 0.01 µM): 0.292; relative viability ([21]; first compound 0.03162 µM): 0.282; relative viability ([21]; first compound 0.3162 µM): 0.268; relative viability ([22]; first compound 0.03162 µM): 0.781; relative viability ([22]; first compound 0.3162 µM): 0.703; relative viability ([23]; first compound 0.01 µM): 0.501; relative viability ([23]; first compound 0.03162 µM): 0.475; relative viability ([23]; first compound 0.3162 µM): 0.441; relative viability ([24]; first compound 0.01 µM): 0.323; relative viability ([24]; first compound 0.03162 µM): 0.364; relative viability ([24]; first compound 0.3162 µM): 0.327
